Experimental data taken from patent US10160705B2, “Class of HDAC inhibitors expands the renal progenitor cells population and improves the rate of recovery from acute kidney injury” (University of Pittsburgh—Of the Commonwealth System of …, priority 2011, dated 2018).
pEC50: −log10 of the molar value. “Also recorded” adds a separate entry of the source. Read-outs that look alike come from different tables or passages of the source.

How the values were obtained:
zebrafish embryos = assay: Phenotypic screen for edema and survival in zebrafish larvae at 72 hpf; settings: number of larvae (of 36); 3 μM from 2 hpf, scored at 72 hpf
In short: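 Embryos (5/well in primary screen; 12–30 per group otherwise) exposed from 2 hpf in E3 medium with 0.5% DMSO, 10 μM in screen or stated concentrations, 28.5 °C for 70 h. At 72 hpf, edema scored by phenotype classification (dominant phenotype in ≥4/5 embryos in screen); survival vs 0 μM by two-tailed Fisher's exact test (p<0.05).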

renal progenitor cells = assay: In situ hybridization for lhx1a expression in 10-somite embryos (renal progenitor cell expansion); type: in vivo; for Lhx1a expansion caused by analog treatment, 3 μM: key: effective (+); partially effective (+/−); ineffective (−); Analogs that killed all embryos at a given concentration before reaching 10 somites are listed as XX; for Lhx1a expansion caused by analog treatment, 800 nM: key: effective (+); partially effective (+/−); ineffective (−); Analogs that killed all embryos at a given concentration before reaching 10 somites are listed as XX
In short: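 Zebrafish embryos treated with compound, then colorimetric whole-mount in situ hybridization (65° C) for lhx1a mRNA at 10 somites. Embryos with expanded kidney field counted manually as percent of total. EC50 taken as 50% point of percent-expansion trendline; compounds also classed effective, partial or ineffective versus PTBA at matched concentration.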

Acetylated Histone H3 K9 = assay: Renal histone acetylation after single S/C injection in CD1 mice; type: in vivo, mouse; settings: 3.4 mg/kg single SC injection, 24 hours
Protocol: PTBA analogs are used at a dose range determined from comparative dose efficacy with m4PTB in the secondary zebrafish screen. […] Preliminary studies compared the effect of Trichostatin A (an established, but toxic HDACi) at an effective dose in the zebrafish screen ([…]) with an equivalent dose of m4PTB (0.8 mM), and then ×2 and ×4 dose increments (molar concentration in vivo based on estimate uniform distribution relative to body mass of water). […] Studies may be performed on 3 mice/group.

[1] = test system: proximal convoluted tubule cells; assay: Renal cell proliferation post gentamycin-induced AKI in zebrafish larvae; type: in vivo; settings: 4 μM added 2 days post injection of gentamicin, EdU at 5 days post injection
Protocol: FIG. 43A is a graph showing the results of an AKI model using gentamycin-induced injury. AKI is generated as per a recent publication, Cianciolo Cosenitino, C., et al. ((2010) Intravenous microinjections of zebrafish larvae to study acute kidney injury. JoVE August 4 (42), pii: 2079. doi: 10.3791/2079). Four micromolar m4PTB (UPHD-00025) was added to the zebrafish E3 media in 0.5% DMSO at 2 days post injection of gentamicin and the larvae are scored daily for four days (6 days post injection) as alive or dead, with the final data tallied on day 6 post injection FIG. 43B.
Proliferation of renal cells was examined post AKI for m4PTB in zebrafish larvae (FIG. 44). AKI is generated as above with gentamycin, essentially as described in Example 11. Four μM m4PTB was added 2 days post injection of gentamicin. Zebrafish larvae at 5 days post injection were treated for 1 hour with the thymidine analogue EdU (10 milimolar), which incorporates into dividing (proliferating cells) while the larvae are in the zebrafish E3 media. The larvae where then fixed and processed for histology to count the number of proliferating cells in the proximal convulted tubule (as marked by the antibody 3G8). The number of proliferating cells was divided by the total number of cells in the proximal convoluted tubule to generate the percent of proliferation also known as the proliferation index as shown in FIG. 44.

For `COC(=O)CCCSc1ccccc1` [UPHD-00025, methyl 4-(phenylsulfanyl)butanoate (m4PTB)], the Dead (zebrafish embryos) was 8, the “Edemic 1 (E1)” value (zebrafish embryos) was 0 and the “Edemic 2 (E2)” value (zebrafish embryos) was 2. The “Edemic 3 (E3)” value (zebrafish embryos) was 26, the “Wild-type (WT)” value (zebrafish embryos) was 0 and the “Lhx1a expansion caused by analog treatment, 800 nM” value (renal progenitor cells; 800 nM from 2 hpf, 10-somite embryos) was “+/−”. The “Lhx1a expansion caused by analog treatment, 1.5 μM” value (renal progenitor cells; 1.5 μM from 2 hpf, 10-somite embryos) was “+”, the “Lhx1a expansion caused by analog treatment, 3 μM” value (renal progenitor cells; 3 μM from 2 hpf, 10-somite embryos) was “+” and the responders at 1.5 µM (renal progenitor cells; Danio rerio, 1.5 μM from 2 hpf, 10-somite embryos, read-out: lhx1a expansion, percent of treated embryos) was 89%. The responders at 3 µM (renal progenitor cells; Danio rerio, 3 μM from 2 hpf, 10-somite embryos, read-out: lhx1a expansion, percent of treated embryos) was 100%, the responders at 0.2 µM (renal progenitor cells; Danio rerio, percent of embryos with expanded kidney field, 200 nM, read-out: Expansion of Cells (including repeats* and recounts**) 200 nM) was 33% and the responders at 1.5 µM (renal progenitor cells; Danio rerio, percent of embryos with expanded kidney field, 1.5 μM, read-out: Expansion of Cells (including repeats* and recounts**) 1.5 μM) was 89%. For the same molecule, the responders at 3 µM (renal progenitor cells; Danio rerio, percent of embryos with expanded kidney field, 3 μM, read-out: Expansion of Cells (including repeats* and recounts**) 3 μM) was 97%, the pEC50 (renal progenitor cells; Danio rerio, first pass EC50 from percent expansion (Excel trendline), average where several experiments) was 6.36 and the “renal Ac-H3 K9 induction” value (Acetylated Histone H3 K9) was “maximal expression of Ac—H3 K9; also recorded: maximal induction of H3K9A”. For the same molecule, the “renal cell proliferation (proliferation index)” value [1] was “significantly increased”.
